Assay results published in PubChem BioAssay (NCI).
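The compound was tested at five concentrations on cells cultured in 96-well plates, with a 48-hour exposure period. Abbreviation: GI50, concentration required for 50% inhibition of growth. At the TGI there is no net growth.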 Where a SMILES comes first, the peptide text is derived from it. [ ]: non-standard residue; d: D form. The star is where a group is joined. X13 = OC[C@H](CC1CCCCC1)N*; dIva = CC[C@@](C)(N)C(=O)O; Aib = CC(C)(N)C(=O)O

Legend:
Assay in all cases: NCI-60 cell line screen, 48 h
[1] = system: NCI-H522 lung
[2] = system: SW-620 colon
[3] = system: CCRF-CEM leukemia
[4] = system: NCI/ADR-RES ovarian
[5] = system: NCI-H460 lung
[6] = system: RPMI-8226 leukemia
[7] = system: TK-10 renal
[8] = system: SK-OV-3 ovarian
[9] = system: HS 578T breast
[10] = system: SF-268 CNS
[11] = system: UO-31 renal
[12] = system: HOP-62 NSCLC
[13] = system: HCC-2998 colon
[14] = system: OVCAR-3 ovarian
[15] = system: SF-539 CNS
[16] = system: ACHN renal
[17] = system: UACC-62 melanoma
[18] = system: MDA-MB-231 breast
[19] = system: NCI-H226 lung
[20] = system: U251 CNS
[21] = system: T-47D breast
[22] = system: MALME-3M melanoma
[23] = system: IGROV1 ovarian
[24] = system: RXF 393 renal
[25] = system: UACC-257 melanoma
[26] = system: HT29 colon
[27] = system: SF-295 CNS
[28] = system: SR leukemia
[29] = system: SNB-19 CNS
[30] = system: SK-MEL-28 melanoma
[31] = system: SN12C renal
[32] = system: OVCAR-8 ovarian
[33] = system: KM12 colon
[34] = system: A498 renal
[35] = system: HOP-92 NSCLC
[36] = system: OVCAR-5 ovarian
[37] = system: SK-MEL-2 melanoma
[38] = system: K-562 leukemia
[39] = system: LOX IMVI melanoma
[40] = system: NCI-H23 lung
[41] = system: PC-3 prostate
[42] = system: SK-MEL-5 melanoma
[43] = system: HCT-15 colon
[44] = system: A549 NSCLC
[45] = system: COLO 205 colon
[46] = system: OVCAR-4 ovarian
[47] = system: EKVX NSCLC
[48] = system: HL-60(TB) leukemia
[49] = system: MCF7 breast
[50] = system: MDA-MB-435
[51] = system: MOLT-4 leukemia
[52] = system: SNB-75 CNS

CC[C@@](C)(NC(=O)C(C)(C)NC(=O)[C@@H](NC(=O)[C@@H]1CCCN1C(=O)C(C)(C)NC(=O)[C@H](CC(C)C)NC(=O)CNC(=O)C(C)(C)NC(=O)[C@@H](NC(=O)C(C)(C)NC(=O)[C@H](CCC(N)=O)NC(=O)[C@H](C)NC(=O)C(C)(C)NC(=O)[C@H](C)NC(=O)C(C)(C)NC(=O)[C@H](C)NC(=O)C(C)(C)NC(C)=O)C(C)C)C(C)C)C(=O)N[C@@H](CCC(N)=O)C(=O)N[C@@H](CCC(N)=O)C(=O)N[C@H](CO)CC1CCCCC1 (Ac-[Aib]A[Aib]A[Aib]AQ[Aib]V[Aib]GL[Aib]PV[Aib][dIva]QQ-X13)
GI50 [1]: 1280 nM | TGI [1]: > 5000 nM | GI50 [2]: 3650 nM | TGI [2]: > 5000 nM | GI50 [3]: 2790 nM | TGI [3]: > 5000 nM | GI50 [4]: > 5000 nM | TGI [4]: > 5000 nM | GI50 [5]: 1600 nM | TGI [5]: > 5000 nM | GI50 [6]: 198 nM | TGI [6]: 1870 nM | GI50 [7]: > 5000 nM | TGI [7]: > 5000 nM | GI50 [8]: 1890 nM | TGI [8]: > 5000 nM | GI50 [9]: 1810 nM | TGI [9]: > 5000 nM | GI50 [10]: 1740 nM | TGI [10]: > 5000 nM | GI50 [11]: > 5000 nM | TGI [11]: > 5000 nM | GI50 [12]: > 5000 nM | TGI [12]: > 5000 nM | GI50 [13]: 2040 nM | TGI [13]: > 5000 nM | GI50 [14]: 1250 nM | TGI [14]: > 5000 nM | GI50 [15]: 1490 nM | TGI [15]: > 5000 nM | GI50 [16]: > 5000 nM | TGI [16]: > 5000 nM | GI50 [17]: 1860 nM | TGI [17]: > 5000 nM | GI50 [18]: 1530 nM | TGI [18]: > 5000 nM | GI50 [19]: > 5000 nM | TGI [19]: > 5000 nM | GI50 [20]: 1490 nM | TGI [20]: > 5000 nM | GI50 [21]: 1560 nM | TGI [21]: > 5000 nM | GI50 [22]: 1180 nM | TGI [22]: 3980 nM | GI50 [23]: 2650 nM | TGI [23]: > 5000 nM | GI50 [24]: 1750 nM | TGI [24]: > 5000 nM | GI50 [25]: 1000 nM | TGI [25]: 4410 nM | GI50 [26]: 2250 nM | TGI [26]: > 5000 nM | GI50 [27]: > 5000 nM | TGI [27]: > 5000 nM | GI50 [28]: 2010 nM | TGI [28]: > 5000 nM | GI50 [29]: 1380 nM | TGI [29]: > 5000 nM | GI50 [30]: 2040 nM | TGI [30]: > 5000 nM | GI50 [31]: 460 nM | TGI [31]: > 5000 nM | GI50 [32]: > 5000 nM | TGI [32]: > 5000 nM | GI50 [33]: 1890 nM | TGI [33]: > 5000 nM | GI50 [34]: 1390 nM | TGI [34]: > 5000 nM | GI50 [35]: 854 nM | TGI [35]: 3380 nM | GI50 [36]: 2840 nM | TGI [36]: > 5000 nM | GI50 [37]: 1220 nM | TGI [37]: 3830 nM | GI50 [38]: 1780 nM | TGI [38]: > 5000 nM | GI50 [39]: 1490 nM | TGI [39]: > 5000 nM | GI50 [40]: 1060 nM | TGI [40]: > 5000 nM | GI50 [41]: 1320 nM | TGI [41]: > 5000 nM | GI50 [42]: 1310 nM | TGI [42]: 4840 nM | GI50 [43]: > 5000 nM | TGI [43]: > 5000 nM | GI50 [44]: 3000 nM | TGI [44]: > 5000 nM | GI50 [45]: 1470 nM | TGI [45]: > 5000 nM | GI50 [46]: 2820 nM | TGI [46]: > 5000 nM | GI50 [47]: > 5000 nM | TGI [47]: > 5000 nM | GI50 [48]: 1440 nM | TGI [48]: 4020 nM | GI50 [49]: 281 nM | TGI [49]: > 5000 nM | GI50 [50]: 1550 nM | TGI [50]: > 5000 nM | GI50 [51]: 2650 nM | TGI [51]: > 5000 nM | GI50 [52]: 1240 nM | TGI [52]: > 5000 nM
